{"source": "patent US6858774B2", "about": "“MDR-like ABC transporter gene from plants” (Wisconsin Alumni Research Foundation, priority 1998, dated 2005)", "key": {"ATPAC": {"target": "T1, ATPAC (Arabidopsis thaliana, UniProt Q9LJX0, DUP906-907/P1064L)", "T1 construct": "The 3.76 kb cDNA clone encodes a polypeptide 1,254 amino acids in length; expressed in transfected cells; host or cells: yeast (wild type and a strain lacking seven ABC transporters)", "T1 sequence (Q9LJX0 other isoform, or with tags, fused parts or gaps DUP906-907/P1064L)": "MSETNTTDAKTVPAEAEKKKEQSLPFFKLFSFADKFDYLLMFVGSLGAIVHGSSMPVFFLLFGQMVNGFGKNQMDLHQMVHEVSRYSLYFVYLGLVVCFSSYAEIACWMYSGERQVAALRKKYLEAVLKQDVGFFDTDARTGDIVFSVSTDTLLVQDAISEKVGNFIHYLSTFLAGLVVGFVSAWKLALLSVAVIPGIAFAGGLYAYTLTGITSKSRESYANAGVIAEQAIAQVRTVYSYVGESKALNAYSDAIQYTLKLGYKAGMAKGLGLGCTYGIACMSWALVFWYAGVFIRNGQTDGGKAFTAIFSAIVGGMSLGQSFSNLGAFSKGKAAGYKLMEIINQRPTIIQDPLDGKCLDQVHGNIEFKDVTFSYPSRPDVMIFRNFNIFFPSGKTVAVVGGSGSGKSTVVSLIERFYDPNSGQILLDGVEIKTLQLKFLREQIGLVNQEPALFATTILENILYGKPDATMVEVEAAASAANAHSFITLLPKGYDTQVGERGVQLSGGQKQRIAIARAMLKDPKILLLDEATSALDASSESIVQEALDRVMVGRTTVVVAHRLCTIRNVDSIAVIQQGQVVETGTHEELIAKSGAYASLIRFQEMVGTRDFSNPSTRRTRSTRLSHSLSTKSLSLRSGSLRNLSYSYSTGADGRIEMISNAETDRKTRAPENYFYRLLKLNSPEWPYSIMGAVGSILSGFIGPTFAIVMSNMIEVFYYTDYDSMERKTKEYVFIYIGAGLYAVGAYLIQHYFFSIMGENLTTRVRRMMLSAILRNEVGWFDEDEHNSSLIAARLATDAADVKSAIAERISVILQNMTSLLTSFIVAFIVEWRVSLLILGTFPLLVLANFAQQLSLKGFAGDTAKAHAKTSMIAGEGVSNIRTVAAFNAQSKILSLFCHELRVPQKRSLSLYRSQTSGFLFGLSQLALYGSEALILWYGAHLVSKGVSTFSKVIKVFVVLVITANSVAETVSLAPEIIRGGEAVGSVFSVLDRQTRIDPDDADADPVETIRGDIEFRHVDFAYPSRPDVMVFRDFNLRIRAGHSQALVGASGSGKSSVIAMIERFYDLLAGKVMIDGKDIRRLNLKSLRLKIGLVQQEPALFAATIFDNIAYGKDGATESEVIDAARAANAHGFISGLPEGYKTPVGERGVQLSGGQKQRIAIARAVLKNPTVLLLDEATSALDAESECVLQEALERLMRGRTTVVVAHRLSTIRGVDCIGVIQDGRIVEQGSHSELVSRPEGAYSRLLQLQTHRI", "experiment": "NPA binding to yeast expressing ATPAC", "description": "Expression in Yeast and Xenopus Oocytes. ATPAC cDNA was expressed in wild type yeast as well as in yeasts lacking seven ABC transporters (as described by Decottignies et al., (1998) J. Biol. Chem. 273:12612-22)in order to create a heterologous system for studying function of the transporter. The yeasts were exposed to toxic compounds that are known substrates for human MDR1. […] Further, there was no evidence of a drug-pumping role for ATPAC.\nATPAC Binds the Auxin Transport Inhibitor naphthylphthalamic acid (NPA). Yeast expressing ATPAC was assayed for NPA binding. […] Bound NPA was not displaced by benzoic acid, a related hydrophobic organic acid. Proteins that bind NPA and influence auxin transport are considered important regulators of hormone action and therefore, of plant development."}, "[1]": {"system": "wild type Arabidopsis seedlings", "experiment": "Treatment of wild type seedlings, morphological phenotype", "assay_type": "in vivo, Arabidopsis thaliana", "settings": "2,4-D or high concentrations of auxin", "description": "Expression of the plPAC gene of the present invention is inducible by auxin as described below in Example 4. Treatment of wild type Arabidopsis seedlings with 2,4-D or high concentrations of auxin result in plants with the same phenotype as that of ATPAC mutant plants. […] Under this model, tissues that express this pump would accumulate auxin as a result of the mutation and the altered auxin balance could be responsible for the altered growth patters typifying the ATPAC phenotype. Further support of this model is the similarity of auxin to indolylic substrates pumped by human MDR1, and the finding that ATPAC expression is increased by auxin."}}}
{"compound": "O=C(O)c1ccccc1", "note": "[benzoic acid]", "values": [{"measurement": "Displacement of bound NPA", "setting": "ATPAC; ATPAC-expressing yeast, bound NPA", "result": "not displaced"}]}
{"compound": "O=C(O)Cc1c[nH]c2ccccc12", "note": "[auxin]", "values": [{"measurement": "Phenotype of treated wild type seedlings", "setting": "[1]", "result": "strongly curved organs"}]}
{"compound": "O=C(O)COc1ccc(Cl)cc1Cl", "note": "[2,4-D]", "values": [{"measurement": "Phenotype of treated wild type seedlings", "setting": "[1]", "result": "strongly curved organs"}]}
{"compound": "O=C(O)c1ccccc1C(=O)Nc1cccc2ccccc12", "note": "[NPA, naphthylphthalamic acid]", "values": [{"measurement": "NPA binding to ATPAC-expressing yeast", "setting": "ATPAC; ATPAC-expressing yeast", "result": "bound tightly and specifically"}, {"measurement": "NPA binding to control yeast", "setting": "ATPAC; control yeast", "result": "not to control yeast"}]}
